Assay results from PubChem BioAssay (NCI).
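Tested at 5 concentrations; 48 h exposure; 96-well plates; endpoints linearly interpolated, else capped at highest concentration. TGI denotes the concentration required for complete inhibition of growth.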

What was measured:
Test in all cases: NCI tumour cell line growth inhibition, 48 h
SN12C renal = system: SN12C renal
MDA-MB-435 = system: MDA-MB-435
IGROV1 ovarian = system: IGROV1 ovarian
SNB-19 CNS = system: SNB-19 CNS
CAKI-1 renal = system: CAKI-1 renal
SK-MEL-2 melanoma = system: SK-MEL-2 melanoma
MALME-3M melanoma = system: MALME-3M melanoma
HCC-2998 colon = system: HCC-2998 colon
U251 CNS = system: U251 CNS
SK-OV-3 ovarian = system: SK-OV-3 ovarian
PC-3 prostate = system: PC-3 prostate
OVCAR-4 ovarian = system: OVCAR-4 ovarian
CCRF-CEM leukemia = system: CCRF-CEM leukemia
COLO 205 colon = system: COLO 205 colon
MOLT-4 leukemia = system: MOLT-4 leukemia
SF-539 CNS = system: SF-539 CNS
OVCAR-5 ovarian = system: OVCAR-5 ovarian
KM12 colon = system: KM12 colon
HOP-62 NSCLC = system: HOP-62 NSCLC
T-47D breast = system: T-47D breast
RXF 393 renal = system: RXF 393 renal
SF-268 CNS = system: SF-268 CNS
HL-60(TB) leukemia = system: HL-60(TB) leukemia
SK-MEL-28 melanoma = system: SK-MEL-28 melanoma
HCT-15 colon = system: HCT-15 colon
NCI-H522 lung = system: NCI-H522 lung
A498 renal = system: A498 renal
OVCAR-8 ovarian = system: OVCAR-8 ovarian
HS 578T breast = system: HS 578T breast
HOP-92 NSCLC = system: HOP-92 NSCLC
UACC-257 melanoma = system: UACC-257 melanoma
DU-145 prostate = system: DU-145 prostate
OVCAR-3 ovarian = system: OVCAR-3 ovarian
BT-549 breast = system: BT-549 breast
RPMI-8226 leukemia = system: RPMI-8226 leukemia
SF-295 CNS = system: SF-295 CNS
MDA-MB-231 breast = system: MDA-MB-231 breast
UO-31 renal = system: UO-31 renal
TK-10 renal = system: TK-10 renal
ACHN renal = system: ACHN renal
MCF7 breast = system: MCF7 breast
HCT-116 colon = system: HCT-116 colon
SW-620 colon = system: SW-620 colon
NCI-H226 lung = system: NCI-H226 lung
A549 NSCLC = system: A549 NSCLC
NCI-H23 lung = system: NCI-H23 lung
786-0 renal = system: 786-0 renal
EKVX NSCLC = system: EKVX NSCLC
SNB-75 CNS = system: SNB-75 CNS
K-562 leukemia = system: K-562 leukemia
NCI-H460 lung = system: NCI-H460 lung
SK-MEL-5 melanoma = system: SK-MEL-5 melanoma
SR leukemia = system: SR leukemia
UACC-62 melanoma = system: UACC-62 melanoma
HT29 colon = system: HT29 colon
NCI/ADR-RES ovarian = system: NCI/ADR-RES ovarian
MDA-N = system: MDA-N
M14 melanoma = system: M14 melanoma
LOX IMVI melanoma = system: LOX IMVI melanoma

Measured: TGI

CSC1=NC(=O)CCN1C1OCC(OC(C)=O)C(OC(C)=O)C1OC(C)=O (stereo not given)
57.8 µM: UO-31 renal
28.7 µM: SF-539 CNS
22.7 µM: SNB-75 CNS
22.4 µM: MDA-MB-231 breast
22.9 µM: SK-MEL-2 melanoma
29.5 µM: SK-OV-3 ovarian
23 µM: IGROV1 ovarian
25.3 µM: A498 renal
> 100 µM: MCF7 breast | UACC-62 melanoma
29.3 µM: SF-268 CNS
22.5 µM: HS 578T breast
27 µM: HOP-92 NSCLC
> 23 µM: HL-60(TB) leukemia
25 µM: BT-549 breast
23.6 µM: RXF 393 renal
25.4 µM: SK-MEL-28 melanoma
18.6 µM: OVCAR-3 ovarian
26 µM: TK-10 renal
17.9 µM: SK-MEL-5 melanoma
> 31.6 µM: SN12C renal | MDA-MB-435 | SNB-19 CNS | CAKI-1 renal | HCC-2998 colon | U251 CNS | PC-3 prostate | OVCAR-4 ovarian | CCRF-CEM leukemia | COLO 205 colon | MOLT-4 leukemia | OVCAR-5 ovarian | KM12 colon | HOP-62 NSCLC | T-47D breast | HCT-15 colon | NCI-H522 lung | OVCAR-8 ovarian | UACC-257 melanoma | DU-145 prostate | RPMI-8226 leukemia | SF-295 CNS | ACHN renal | HCT-116 colon | SW-620 colon | NCI-H226 lung | A549 NSCLC | NCI-H23 lung | 786-0 renal | EKVX NSCLC | K-562 leukemia | NCI-H460 lung | SR leukemia | HT29 colon | NCI/ADR-RES ovarian
23.2 µM: MALME-3M melanoma

Cc1ccc(N/N=C/C2=CC(C)(C)C(C#N)(C#N)C(O)=C2C#N)cc1
85.2 µM: RXF 393 renal
58.1 µM: HL-60(TB) leukemia
93.7 µM: RPMI-8226 leukemia
69.5 µM: CAKI-1 renal
58.7 µM: PC-3 prostate
91.2 µM: SR leukemia
42.2 µM: HOP-92 NSCLC
> 100 µM: SN12C renal | MDA-N | MDA-MB-435 | IGROV1 ovarian | SNB-19 CNS | MALME-3M melanoma | HCC-2998 colon | SK-OV-3 ovarian | OVCAR-4 ovarian | CCRF-CEM leukemia | COLO 205 colon | MOLT-4 leukemia | SF-539 CNS | OVCAR-5 ovarian | KM12 colon | HOP-62 NSCLC | T-47D breast | SF-268 CNS | SK-MEL-28 melanoma | NCI-H522 lung | OVCAR-8 ovarian | HS 578T breast | UACC-257 melanoma | DU-145 prostate | M14 melanoma | OVCAR-3 ovarian | SF-295 CNS | MDA-MB-231 breast | UO-31 renal | TK-10 renal | ACHN renal | MCF7 breast | HCT-116 colon | SW-620 colon | NCI-H226 lung | A549 NSCLC | NCI-H23 lung | 786-0 renal | EKVX NSCLC | SNB-75 CNS | K-562 leukemia | NCI-H460 lung | SK-MEL-5 melanoma | LOX IMVI melanoma | UACC-62 melanoma | HT29 colon | NCI/ADR-RES ovarian
